According to US7914763B1, “Process and apparatus for preparing manganese thiosulfate (MnTS) solution” (Tessenderlo Kerley, Inc., priority 2010, dated 2011):

Assays:
[1] = at 25° C.
Description: Manganese thiosulfate, also referred to herein as “MnTS”, is a liquid source of Mn with up to 20% concentration.

[2] = pH of the compound as Mn plant nutrient source in water; cited from earlier work

Molecule | pH of solution of manganese thiosulfate [1] | Mn concentration of saturated solution of MnTS (MnTS prepared by salt exchange of MnSO4 with calcium thiosulfate, evaporated to point of crystal formation, percent by weight) | Solubility of MnTS (saturated solution) (saturated solution, corresponding to measured Mn, percent by weight) | Maximum solubility of MnTS (solid from evaporation redissolved in aqueous solution at ambient temperature, calculated from Mn concentration) | respective pH [2]
manganese thiosulfate [MnTS] | 5-6 | 5.85 % Mn | ~17 % MnTS | 17-18% | –
O=S(=O)([O-])[O-].[Mn+2] [MnSO4, manganese sulfate] | – | – | – | – | 2.8
manganese carbonate [MnCO3] | – | – | – | – | 6.4
